Patent publication US20240350667A1, “Method of Enhancing Gene Therapy by Targeting cGAS-STING Pathway” (Spark Therapeutics, Inc., priority 2021, published 2024)

How the values were obtained:
[1] = tested on: DNA-LNP-induced plasma cytokines; experiment: In vivo LNP-encapsulated H-151 inhibition of DNA-LNP-induced cytokine release; parameters: species or system BALB/c mice; settings: H-151 encapsulated in 10 μg DNA-LNP, about 1-2 μg/mouse, 4 hours post injection
Protocol: BALB/c mice were injected with 10 μg DNA-LNP or 10 μg DNA-LNP encapsulating H-151. H-151 was provided at a dose of about 1-2 μg/mouse (about 0.04-0.08 mg/kg mouse) Cytokine levels in plasma were measured at 4 hours post injection. FIGS. 2A, 2B, 2C, and 2D illustrate the ability of H-151 encapsulated with the DNA-LNP to inhibit DNA-induced IFN-β (FIG. 2A), IFN-α (FIG. 2B), IFN-γ (FIG. 2C) and IL-6 (FIG. 2D). The DNA-LNP was as described in Example 1, above.

[2] = tested on: interferon regulatory factor (IRF) pathway in THP1-Dual cells; experiment: In vitro H-151 inhibition of DNA-LNP-induced IRF activation (Lucia luciferase in THP1-Dual cell supernatant); type: cell-based; settings: 25 ng DNA-LNP/well, 24 hours, FIG. 1
Protocol: THP1-Dual™ cells (InvivoGen) were seeded in 96-well plates at a density of 45,000 cells/well. After overnight incubation, the cells were treated with 25 ng DNA-LNP/well in the presence of 0, 0.2 or 2.1 ng of small molecule STING inhibitor H-151 (InvivoGen), where the H-151 was provided either a) co-encapsulated with the DNA in the LNPs, or b) provided in a soluble form. After 24 hours incubation, activation of the interferon regulatory factor (IRF) pathway (“fold IRF activity”) was determined by measuring luminescence signal (Lucia luciferase) in the cell culture supernatant. The DNA-LNP was made up of (1) DNA plasmid (nanoplasmid expression cassette encoding human coagulation Factor IX (hFIX)) and (2) Lipid 5 (further described in Sabnis et al. and I.A. infra.), 50%; C14-PEG2000, 1.5%; cholesterol, 38.5%; and DSPC, 10%.

[3] = tested on: DNA-LNP-induced plasma cytokine/chemokine levels; experiment: In vivo RO3150 and GSK690693 inhibition of DNA-LNP-induced cytokine release; parameters: species or system BALB/c mice; settings: pre-treatment before DNA-LNP: dexamethasone 200 μg IP, GSK690693 312.5 μg IP (about one hour prior), RO3150 60 μg IV (right before); plasma at 4 hours; FIGS. 3A-3H
Protocol: BALB/c mice were pre-treated with dexamethasone, GSK690693, or RO3150 before DNA-LNP administration, and plasma cytokine levels were measured at 4 hours post DNA-LNP treatment. The DNA-LNP was made up of (1) DNA plasmid (nanoplasmid expression cassette encoding hFIX); and (2) GenVoy-ILM™ LNP. GenVoy-ILM™ LNP contains ionizable lipid at 50%; DSPC at 10%; cholesterol 37.5%; and stabilizer (PEG-Lipid) at 2.5% (see Roces et al., Pharmaceutics, 2020 12, 1095). Pretreatment was carried out using 200 μg dexamethasone administered intraperitoneally about one hour prior to DNA-LNP administration; using 312.5 μg GSK69063 administered intraperitoneally about one hour prior to DNA-LNP administration; or using 60 μg […] administered intravenously right before DNA-LNP administration.

| Structure (SMILES) | DNA-induced IFN-β in plasma ([1]; FIG. 2A) | DNA-induced IFN-α in plasma ([1]; FIG. 2B) | DNA-induced IFN-γ in plasma ([1]; FIG. 2C) | DNA-induced IL-6 in plasma ([1]; FIG. 2D) | effect on LNP-DNA-induced IRF activation (fold IRF activity), compared with soluble H-151 ([2]; H-151 co-encapsulated with the DNA in the LNP, 0.2 or 2.1 ng/well) | effect on LNP-DNA-induced IRF activation (fold IRF activity) ([2]; soluble H-151, 0.2 or 2.1 ng/well) | cytokine/chemokine levels induced by DNA-LNP [3] |
| --- | --- | --- | --- | --- | --- | --- | --- |
| CCc1ccc(NC(=O)Nc2c[nH]c3ccccc23)cc1 [H-151] | inhibit | inhibit | inhibit | inhibit | more pronounced | had an inhibitory effect | – |
| CCn1c(-c2nonc2N)nc2c(C#CC(C)(C)O)ncc(OC[C@H]3CCCNC3)c21 [GSK690693] | – | – | – | – | – | – | reduced most cytokine/chemokine levels except IL-6 and KC/GRO |
